Measured values from US20160368868A1, “N-(1-CYANO-2-HYDROXY-1-METHYL-ETHYL)-4-(TRIFLUOROMETHYLSULFANYL)BENZAMIDE DERIVATIVES FOR USE AS NEMATOCIDAL DRUGS” (UNIVERSITÄT ZÜRICH Prorektorat MNW, priority 2013, published 2016).

Legend:
Dirofilaria immitis = test: Activity in vitro against Dirofilaria immitis microfilariae (motility); format: cell-based; conditions: at up to 10 μg/mL; efficacy in percent reduced motility of microfilariae; 48 hours at 26° C.
MRC-5 = test: Resazurin fluorometric cell viability assay, MRC-5; conditions: Homo sapiens, MRC5, 48 h, read-out: IC50 in MRC-5
Procedure: (§1) The toxicity towards a human cervical cancer HeLa and a non-cancerous (MRC-5) cell line was determined using the fluorometric cell viability assay (Resazurin) (Ahmed et al., J. Immunol. Methods 1994, 170, 211.), results of which are shown in Table 1.
(§2) Human cervical carcinoma cells (HeLa) cells were cultured in DMEM (Gibco) supplemented with 5% fetal calf serum (FCS, Gibco), 100 U/ml penicillin, 100 μg/ml streptomycin at 37° C. and 5% CO2. The normal human fetal lung fibroblast MRC-5 cell line was maintained in F-10 medium (Gibco) supplemented with 10% FCS (Gibco), penicillin (100 U/ml), and streptomycin (100 μg/ml). Cytotoxicity studies were performed on two different cell lines, namely HeLa, and MRC-5, by a fluorometric cell viability assay using Resazurin (Promocell GmbH). Briefly, one day before treatment, cells were seeded in triplicates in 96-well plates at a density of 4×10^3 cells/well for HeLa and 7×10^3 for MRC-5 in 1041.1 growth medium. Upon treating cells with increasing concentrations of Fc-PZQ derivatives for 48h, the medium was removed, and 100 μl complete medium containing Resazurin (0.2 mg/ml final concentration) were added. After 4h of incubation at 37° C., fluorescence of the highly red fluorescent product Resorufin was quantified at 590 nm emission with 540 nm excitation wavelength in a SpectraMax M5 microplate Reader.

H. contortus = test: Larval development assay (LDA); conditions: for inhibition of the development of H. contortus larvae: at concentrations between 100 μM and 25 μM; for LD50 against H. Contortus: larval development assay, L3 counted after 7 days
HeLa = test: Resazurin fluorometric cell viability assay, HeLa; conditions: Homo sapiens, 48 h, read-out: IC50 in HeLa
Procedure: as §1, §2

## CC(C#N)(COC(=O)c1ccccc1)NC(=O)c1ccc(SC(F)(F)F)cc1 (centres unmarked)
Dirofilaria immitis
  Activity against Dirofilaria immitis: EC6 at up to 10 μg/mL

## CC(C#N)(CO)NC(=O)c1ccc(SC(F)(F)F)cc1 (centres unmarked) [ahpOH, N-(2-cyano-1-hydroxypropan-2-yl)-4-((trifluoromethyl)thio)benzamide]
MRC-5
  IC50: > 100 µM
H. contortus
  inhibition of the development of H. contortus larvae: severely and reproducibly inhibited
  LD50 against H. Contortus: 173 nM
HeLa
  IC50: > 100 µM

## CC(C#N)(CO)NC(=O)c1ccc(SC(F)(F)F)cc1 (centres unmarked) [drawing 36]
Dirofilaria immitis
  Activity against Dirofilaria immitis: EC20 at up to 10 μg/mL

## CC(C#N)(CO)NC(=O)c1ccc(C(F)(F)F)cc1 (centres unmarked)
Dirofilaria immitis
  Activity against Dirofilaria immitis: EC25 at up to 10 μg/mL

## CC(C#N)(CO)NC(=O)c1ccc(S(=O)(=O)C(F)(F)F)cc1 (centres unmarked)
Dirofilaria immitis
  Activity against Dirofilaria immitis: EC15 at up to 10 μg/mL

## C#CC(=O)OCC(C)(C#N)NC(=O)c1ccc(SC(F)(F)F)cc1 (centres unmarked)
Dirofilaria immitis
  Activity against Dirofilaria immitis: EC15 at 0-10 μg/mL

## CC(C#N)(CO)NC(=O)c1ccc([S+]([O-])C(F)(F)F)cc1 (centres unmarked)
Dirofilaria immitis
  Activity against Dirofilaria immitis: EC5 at up to 10 μg/mL

## CC(=O)OCC(C)(C#N)NC(=O)c1ccc(SC(F)(F)F)cc1 (centres unmarked) [ahpOH1, 2-Cyano-2-(4-((trifluoromethyl)thio)benzamido)propyl acetate]
MRC-5
  IC50: > 100 µM
H. contortus
  inhibition of the development of H. contortus larvae: severely and reproducibly inhibited
  LD50 against H. Contortus: 550 nM
HeLa
  IC50: > 100 µM

## CC(C#N)(CO)NC(=O)c1ccc(I)cc1 (centres unmarked)
Dirofilaria immitis
  Activity against Dirofilaria immitis: EC15 at up to 10 μg/mL

## CC(C#N)(CO)NC(=O)c1ccc(F)cc1 (centres unmarked)
Dirofilaria immitis
  Activity against Dirofilaria immitis: EC20 at up to 10 μg/mL

## CSc1ccc(C(=O)NC(C)(C#N)CO)cc1 (centres unmarked)
Dirofilaria immitis
  Activity against Dirofilaria immitis: EC15 at up to 10 μg/mL

## C[C@](C#N)(COc1cc(C#N)ccc1C(F)(F)F)NC(=O)c1ccc(SC(F)(F)F)cc1 [Zolvix, Monepantel, reference compound]
MRC-5
  IC50: 63.9 µM
H. contortus
  LD50 against H. Contortus: <41 nM
HeLa
  IC50: 34.1 µM
